Reference: ChEMBL document CHEMBL3739407, “Synthesis and SAR of Imidazo[1,5-a]pyridine derivatives as 5-HT4 receptor partial agonists for the treatment of cognitive disorders associated with Alzheimer's disease” (Eur J Med Chem, 2015)

Experiments:
[1] = Ratio of drug level in brain to plasma in Wistar rat at 10 mg/kg, po and 5 mg/kg, iv; format: ADME, organism-based; settings: read-out: BPR
[2] = Cmax in Wistar rat at 10 mg/kg, po and 5 mg/kg, iv; format: ADME, organism-based; settings: in vivo
[3] = Oral bioavailability in Wistar rat at 10 mg/kg; format: ADME, organism-based; settings: in vivo
[4] = Volume of distribution at steady state in Wistar rat at 10 mg/kg, po and 5 mg/kg, iv by LC-MS analysis; format: ADME, organism-based; settings: in vivo, read-out: Vdss
[5] = Cmax in Wistar rat at 3 mg/kg, po; format: ADME, organism-based; set-up: dose 3 mg/kg, route oral; settings: in vivo
[6] = Oral bioavailability in Wistar rat at 3 mg/kg; format: ADME, organism-based; settings: in vivo
[7] = Apparent permeability of the compound in human Caco2 cells; format: ADME, cell-based; settings: Caco-2
[8] = AUC (0 to t) in beagle dog at 1 mg/kg, po; format: ADME, organism-based, Canis lupus familiaris; settings: in vivo
[9] = Tmax in beagle dog at 1 mg/kg, po; format: ADME, organism-based, Canis lupus familiaris; settings: in vivo
[10] = AUC (0 to t) in Wistar rat at 1 mg/kg, iv; format: ADME, organism-based; settings: in vivo
[11] = Cmax in beagle dog at 1 mg/kg, po; format: ADME, organism-based, Canis lupus familiaris; set-up: dose 1 mg/kg, route oral; settings: in vivo
[12] = Oral bioavailability in beagle dog at 1 mg/kg; format: ADME, organism-based, Canis lupus familiaris; settings: in vivo
[13] = AUC (0 to t) in beagle dog at 1 mg/kg, iv administered as 5 mins infusion; format: ADME, organism-based, Canis lupus familiaris; settings: in vivo
[14] = Tmax in Wistar rat at 3 mg/kg, po; format: ADME, organism-based; settings: in vivo
[15] = Apparent volume of distribution in beagle dog at 1 mg/kg, iv administered as 5 mins infusion; format: ADME, organism-based, Canis lupus familiaris; settings: in vivo, read-out: Vd(app)
[16] = Apparent volume of distribution in Wistar rat at 1 mg/kg, iv; format: ADME, organism-based; settings: in vivo, read-out: Vd(app)
[17] = AUC (0 to t) in Wistar rat at 3 mg/kg, po; format: ADME, organism-based; settings: in vivo

Row | Kp [1] | Cmax [2] | bioavailability [3] | Vd [4] | Compound | other results
1 | 0.22 | 109 ng/mL | 30% | 5.2 L/kg | COCCCN1CCC(CNC(=O)c2nc(C(C)C)n3ccccc23)CC1 | 
2 | 0.31 | 1760 ng/mL | 98% | 4.6 L/kg | CC(C)c1nc(C(=O)NC2CCN(C3CCOCC3)CC2)c2ccccn12 | 
3 | 0.31 | 188 ng/mL | 26% | 3.7 L/kg | COCCCN1C[C@@H]2[C@@H](CNC(=O)c3nc(C(C)C)n4ccccc34)[C@@H]2C1 | Cmax [5]: 188 ng/mL; bioavailability [6]: 26%; Papp [7]: 34.8 ×10⁻⁶ cm/s; AUC(0-t) [8]: 1220 ng·h/mL; Tmax [9]: 30 min; AUC(0-t) [10]: 389 ng·h/mL; Cmax [11]: 412 ng/mL; bioavailability [12]: 94%; AUC(0-t) at 5 min [13]: 1310 ng·h/mL; Tmax [14]: 15 min; Vd [15]: 2.1 L/kg; Vd [16]: 3.7 L/kg; AUC(0-t) [17]: 301 ng·h/mL
4 | 0.31 | 232 ng/mL | 45% | 4 L/kg | CC(C)c1nc(C(=O)NCC2CCN(CC3CCOCC3)CC2)c2ccccn12 | 
5 | 0.14 | 80 ng/mL | 5% | 7.6 L/kg | CC(C)c1nc(C(=O)NC[C@@H]2[C@H]3CN(C(C)C)C[C@@H]23)c2ccccn12 | 
6 |  | 74 ng/mL | 3.7% | 5.3 L/kg | CC(C)c1nc(C(=O)NC2CCN(CC3CC3)CC2)c2ccccn12 | 
7 | 0.69 | 150 ng/mL | 12% | 3.3 L/kg | COC(=O)N1CCC(CN2C[C@@H]3[C@@H](CNC(=O)c4nc(C(C)C)n5ccccc45)[C@@H]3C2)CC1 | 
8 | 0.31 | 277 ng/mL | 34% | 3.8 L/kg | CC(C)c1nc(C(=O)NC[C@@H]2[C@H]3CN(CC(C)(C)O)C[C@@H]23)c2ccccn12 | 
9 | 0.38 | 434 ng/mL | 63% | 4.7 L/kg | CC(C)c1nc(C(=O)NC2CCN(CC3(O)CCOCC3)CC2)c2ccccn12 | 
10 | 0.6 | 120 ng/mL | 17% | 10.4 L/kg | CC(C)c1nc(C(=O)NC[C@@H]2[C@H]3CN(CC4CCOCC4)C[C@@H]23)c2ccccn12 | 
11 |  | 166 ng/mL | 10% | 4.7 L/kg | CC(C)c1nc(C(=O)NC2CCN(C(C)C)CC2)c2ccccn12 | 
12 | 0.31 | 848 ng/mL | 44% | 4.9 L/kg | COCCCN1CCC(NC(=O)c2nc(C(C)C)n3ccccc23)CC1 | 
13 | 0.38 | 8.1 ng/mL | 1.5% | 4.9 L/kg | CC(C)c1nc(C(=O)NC[C@@H]2[C@H]3CN(CC(C)(C)F)C[C@@H]23)c2ccccn12 | 

Row | Compound | Kp [1] | Cmax [2] | bioavailability [3] | Vd [4] | other results
14 | CC(C)c1nc(C(=O)NC2CCN(CCF)CC2)c2ccccn12 | 1.46 | 99 ng/mL | 11% | 2.9 L/kg | 
